# The supplement of paper PMC10307832
# What was measured:
# Experiment in all cases: relative viability (nuclei count vs DMSO), 5 days (fraction); higher = more cells survive
# Lapatinib + Linsitinib = compound: CS(=O)(=O)CCNCc1ccc(-c2ccc3ncnc(Nc4ccc(OCc5cccc(F)c5)c(Cl)c4)c3c2)o1 [Lapatinib] + C[C@]1(O)C[C@@H](c2nc(-c3ccc4ccc(-c5ccccc5)nc4c3)c3c(N)nccn32)C1 [Linsitinib] (partner 1 µM)
# Outline: (§1)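 Relative viability equals treated-well nuclei counts divided by vehicle-well nuclei counts. Counts came from 4× images of lung cancer cell lines grown in 1536-well plates for 5 days after pin-tool dosing on the day after seeding. Dosing used one drug alone or a fixed anchor-drug dose plus five library-drug doses (not always all listed) in √10 steps, and values are medians of duplicate plates.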
# Lapatinib + Palbociclib = compound: CS(=O)(=O)CCNCc1ccc(-c2ccc3ncnc(Nc4ccc(OCc5cccc(F)c5)c(Cl)c4)c3c2)o1 [Lapatinib] + CC(=O)c1c(C)c2cnc(Nc3ccc(N4CCNCC4)cn3)nc2n(C2CCCC2)c1=O [Palbociclib] (partner 0.5 µM)
# Outline: as §1
# Lapatinib + Navitoclax = compound: CS(=O)(=O)CCNCc1ccc(-c2ccc3ncnc(Nc4ccc(OCc5cccc(F)c5)c(Cl)c4)c3c2)o1 [Lapatinib] + CC1(C)CCC(c2ccc(Cl)cc2)=C(CN2CCN(c3ccc(C(=O)NS(=O)(=O)c4ccc(N[C@H](CCN5CCOCC5)CSc5ccccc5)c(S(=O)(=O)C(F)(F)F)c4)cc3)CC2)C1 [Navitoclax] (partner 0.5 µM)
# Outline: as §1
# Wnt-C59 + Dasatinib = compound: CC1=NC=CC(=C1)C2=CC=C(C=C2)CC(=O)NC3=CC=C(C=C3)C4=CN=CC=C4 [Wnt-C59] + Cc1nc(Nc2ncc(C(=O)Nc3c(C)cccc3Cl)s2)cc(N2CCN(CCO)CC2)n1 [Dasatinib] (partner 0.075 µM)
# Outline: as §1
cell line,measurement,setting,value
UMC-11,relative viability,Lapatinib + Linsitinib; first compound 0.02 µM,1
same,relative viability,Lapatinib + Linsitinib; first compound 0.06325 µM,0.964
same,relative viability,Lapatinib + Linsitinib; first compound 0.2 µM,1.11
same,relative viability,Lapatinib + Linsitinib; first compound 0.6325 µM,0.985
same,relative viability,Lapatinib + Linsitinib; first compound 2 µM,1.02
same,relative viability,Lapatinib + Palbociclib; first compound 0.02 µM,0.391
same,relative viability,Lapatinib + Palbociclib; first compound 0.06325 µM,0.347
same,relative viability,Lapatinib + Palbociclib; first compound 0.2 µM,0.301
same,relative viability,Lapatinib + Palbociclib; first compound 0.6325 µM,0.282
same,relative viability,Lapatinib + Palbociclib; first compound 2 µM,0.27
same,relative viability,Lapatinib + Navitoclax; first compound 0.02 µM,0.352
same,relative viability,Lapatinib + Navitoclax; first compound 0.06325 µM,0.278
same,relative viability,Lapatinib + Navitoclax; first compound 0.2 µM,0.311
same,relative viability,Lapatinib + Navitoclax; first compound 0.6325 µM,0.318
same,relative viability,Lapatinib + Navitoclax; first compound 2 µM,0.314
same,relative viability,Wnt-C59 + Dasatinib; first compound 0.001 µM,0.444
same,relative viability,Wnt-C59 + Dasatinib; first compound 0.01 µM,0.417
same,relative viability,Wnt-C59 + Dasatinib; first compound 0.03162 µM,0.525
same,relative viability,Wnt-C59 + Dasatinib; first compound 0.1 µM,0.468
